Measured values as given in patent US4321384A, “Antihypertensive agents” (American Home Products Corporation, priority 1981, dated 1982).
Structures can show the parent of a compound that is named as a salt.

Columns and labels:
rabbit aortic strips [1] = test: Ca+2 antagonism: relaxation of potassium-contracted rabbit aortic strips; format: cell-based; conditions: Oryctolagus cuniculus; 10^-5 M bath concentration; strips contracted with 100 millimoles potassium ion; read-out: percent relaxation (P.R.)
Method: After a stable active tension has developed in the strip, as measured by Statham UC-2 force transducers and recorded on an eight channel Beckman Dynograph Polygraphic Recorder, an amount of the antagonist was added to the organ bath to make a 10^-5 molar concentration of antagonist. The […] effect, expressed as percent relaxation, was taken from the mean of at least two experiments. […] A Ca^+2 antagonist producing a 20 percent relaxation of aortic tissue in this test procedure at a 10^-5 molar bath concentration of the antagonist, generally produces a significant reduction in blood pressure when a sufficient amount is given to the spontaneously hypertensive rat. The following examples illustrate the preparation of a representative number of compounds of this invention. After each example, the Ca^+2 antagonist activity of the compound is presented in terms of percent relaxation (P.R.) at the stated concentration. Similarly, the antihypertensive activity is reported in terms of millimeters mercury (mmHg) blood pressure (B.P.) reduction at the stated time post 50 mg/kg oral dosing.

[2] = test system: spontaneously hypertensive rats; test: Systolic blood pressure lowering in spontaneously hypertensive rats; format: in vivo, rat
Method: The in vivo blood pressure lowering ability of the compounds of this invention was established by measuring the systolic pressure of spontaneously hypertensive rats with a Decker Caudal Plethysmograph or similar sensor device. The compound being tested is administered to groups of four rats and their blood pressure is read prior to compound administration and at 1.5 and 4 hours after compound administration. Depending upon the behavior of the compound being tested, the schedule of blood pressure readings and route of administration is modified. Initially the compounds are administered orally but where compound solubility is a factor, the compounds may be administered parenterally (i.e. i.p., i.m., s.c., i.v., etc.) as desired. The compounds of this invention were initially administered orally at a standard testing dose of 50 mg/kg.
The following examples illustrate the preparation of a representative number of compounds of this invention. After each example, the Ca^+2 antagonist activity of the compound is presented in terms of percent relaxation (P.R.) at the stated concentration. Similarly, the antihypertensive activity is reported in terms of millimeters mercury (mmHg) blood pressure (B.P.) reduction at the stated time post 50 mg/kg oral dosing.

rabbit aortic strips [3] = test: Ca+2 antagonism: relaxation of potassium-contracted rabbit aortic strips; format: cell-based; conditions: Oryctolagus cuniculus; 10^-6 M bath concentration; strips contracted with 100 millimoles potassium ion; read-out: percent relaxation (P.R.)
[4] = 1.5 hours post 50 mg/kg oral dosing
[5] = 4 hours post 50 mg/kg oral dosing

SMILES	inhibition at 10 µM (rabbit aortic strips [1])	blood pressure (B.P.) reduction [2, 4]	blood pressure (B.P.) reduction [2, 5]	inhibition at 1 µM (rabbit aortic strips [3])
COC(=O)C1=C(C)NC2=C(C(=O)CN(C)C2)C1c1ccccc1[N+](=O)[O-] (centres unmarked) [Example 1, 1,4,5,6,7,8-Hexahydro-2,7-dimethyl-4-(2-nitrophenyl)-5-oxo-1,7-naphthyridine-3-carboxylic acid methyl ester]	14%	-27 mmHg	-21 mmHg	–
COC(=O)C1=C(C)NC2=C(C(=O)CN(C)C2)C1c1ccccc1C (centres unmarked) [Example 2, 1,4,5,6,7,8-Hexahydro-2,7-dimethyl-4-(2-methylphenyl)-5-oxo-1,7-naphthyridine-3-carboxylic acid methyl ester]	31%	-57 mmHg	-28 mmHg	–
COC(=O)C1=C(C)NC2=C(C(=O)CN(Cc3ccccc3)C2)C1c1ccccc1C (centres unmarked) [Example 3, 1,4,5,6,7,8-Hexahydro-2-methyl-4-(2-methylphenyl)-5-oxo-7-(phenylmethyl)-1,7-naphthyridine-3-carboxylic acid methyl ester]	–	-23 mmHg	-41 mmHg	90%
COC(=O)C1=C(C)NC2=C(C(=O)CN(C)C2)C1c1ccccc1C(F)(F)F (centres unmarked) [Example 4, 1,4,5,6,7,8-Hexahydro-2,7-dimethyl-5-oxo-4-[2-(trifluoromethyl)-phenyl]-1,7-naphthyridine-3-carboxylic acid methyl ester]	48%	-68 mmHg	-70 mmHg	–
COC(=O)C1=C(C)NC2=C(C(=O)CN(Cc3ccccc3)C2)C1c1ccccc1C(F)(F)F (centres unmarked) [Example 5, 1,4,5,6,7,8-Hexahydro-2-methyl-5-oxo-7-(phenylmethyl)-4-[2-(trifluoromethyl)phenyl]-1,7-naphthyridine-3-carboxylic acid methyl ester]	–	–	–	40%
COC(=O)C1=C(C)NC2=C(C(=O)CN(C)C2)C1c1cccc([N+](=O)[O-])c1 (centres unmarked) [Example 6, 1,4,5,6,7,8-Hexahydro-2,7-dimethyl-4-(3-nitrophenyl)-5-oxo-1,7-naphthyridine-3-carboxylic acid methyl ester]	35%	-85 mmHg	-47 mmHg	–
COC(=O)C1=C(C)NC2=C(C(=O)CNC2)C1c1ccccc1C (centres unmarked) [Example 7, 1,4,5,6,7,8-Hexahydro-2-methyl-4-(2-methylphenyl)-5-oxo-1,7-naphthyridine-3-carboxylic acid:methyl ester]	46%	-77 mmHg	-64 mmHg	–
COC(=O)C1=C(C)NC2=C(C(=O)CN(C)C2)C1c1ccccc1Cl (centres unmarked) [Example 8, 4-(2-chlorophenyl)-1,4,5,6,7,8-Hexahydro-2,7-dimethyl-5-oxo-1,7-naphthyridine-3-carboxylic acid methyl ester]	28.3%	-54 mmHg	-30 mmHg	–
COC(=O)C1=C(C)NC2=C(C(=O)CN(C)C2)C1c1c(Cl)cccc1Cl (centres unmarked) [Example 9, 4-(2,6-Dichlorophenyl)-1,4,5,6,7,8-hexahydro-2,7-dimethyl-5-oxo-1,7-naphthyridine-3-carboxylic acid methyl ester]	41.5%	-22 mmHg	-43 mmHg	–
COC(=O)C1=C(C)NC2=C(C(=O)CN(Cc3ccccc3)C2)C1c1cccc([N+](=O)[O-])c1 (centres unmarked) [Example 10, 1,4,5,6,7,8-Hexahydro-2-methyl-4-(3-nitrophenyl)-5-oxo-7-(phenylmethyl)-1,7-naphthyridine-3-carboxylic acid methyl ester]	–	–	–	89.7%
COC(=O)C1=C(C)NC2=C(C(=O)CN(C)C2)C1c1cc(C)ccc1C (centres unmarked) [Example 11, 4-(2,5-Dimethylphenyl)-1,4,5,6,7,8-hexahydro-2,7-dimethyl-5-oxo-1,7-naphthyridine-3-carboxylic acid methyl ester]	22%	–	–	–
COC(=O)C1=C(C)NC2=C(C(=O)CNC2)C1c1ccccc1C(F)(F)F (centres unmarked) [Example 12, 1,4,5,6,7,8-Hexahydro-2-methyl-5-oxo-4-[2-(trifluoromethyl)phenyl]-1,7-naphthyridine-3-carboxylic acid methyl ester]	89.1%	-88 mmHg	–	–
COC(=O)C1=C(C)NC2=C(C(=O)CN(Cc3ccccc3)C2)C1c1cccc(C(F)(F)F)c1 (centres unmarked) [Example 14 intermediate, 1,4,5,6,7,8-hexahydro-2-methyl-5-oxo-7-(phenylmethyl)-4-[3-(trifluoromethyl)phenyl]-1,7-naphthyridine-3-carboxylic acid methyl ester hydrochloride]	–	–	–	46.2%
COC(=O)C1=C(C)NC2=C(C(=O)CNC2)C1c1cccc(C(F)(F)F)c1 (centres unmarked) [Example 14, 1,4,5,6,7,8-Hexahydro-2-methyl-5-oxo-4-[3-(trifluoromethyl)phenyl]-1,7-naphthyridine-3-carboxylic acid methyl ester]	84%	-51 mmHg	-43 mmHg	–
COC(=O)C1=C(C)NC2=C(C(=O)CN(Cc3ccccc3)C2)C1c1ccccc1F (centres unmarked) [Example 15 intermediate, 4-(2-fluorophenyl)-1,4,5,6,7,8-hexahydro-2-methyl-5-oxo-7-(phenylmethyl)-1,7-naphthyridine-3-carboxylic acid methyl ester hydrochloride]	–	–	–	48%
COC(=O)C1=C(C)NC2=C(C(=O)CNC2)C1c1ccccc1F (centres unmarked) [Example 15, 4-(2-Fluorophenyl)-1,4,5,6,7,8-hexahydro-2-methyl-5-oxo-1,7-naphthyridine-3-carboxylic acid methyl ester]	54%	-45 mmHg	–	–
COC(=O)C1=C(C)NC2=C(C(=O)CN(C)C2)C1c1cccc(C#N)c1 (centres unmarked) [Example 16, 4-(3-Cyanophenyl)-1,4,5,6,7,8-Hexahydro-2,7-dimethyl-5-oxo-1,7-naphthyridine-3-carboxylic acid methyl ester]	66%	-53 mmHg	–	–
COC(=O)C1=C(C)NC2=C(C(=O)CN(C)C2)C1c1cccc(C)c1C (centres unmarked) [Example 17, 4-(2,3-Dimethylphenyl)-1,4,5,6,7,8-hexahydro-2,7-dimethyl-5-oxo-1,7-naphthyridine-3-carboxylic acid methyl ester]	54%	–	-40 mmHg	–
CCCCc1ccccc1C1C(C(=O)OC)=C(C)NC2=C1C(=O)CN(Cc1ccccc1)C2 (centres unmarked) [Example 18, 4-[2-(n-butyl)phenyl]-1,4,5,6,7,8-Hexahydro-2-methyl-5-oxo-7-(phenylmethyl)-1,7-naphthyridine-3-carboxylic acid methyl ester]	–	–	–	61%
CCCCc1ccccc1C1C(C(=O)OC)=C(C)NC2=C1C(=O)CNC2 (centres unmarked) [Example 19, 4-[2-(n-butyl)phenyl]-1,4,5,6,7,8-hexahydro-2-methyl-5-oxo-1,7-naphthyridine-3-carboxylic acid methyl ester]	49.2%	-24 mmHg	–	–
COC(=O)C1=C(C)NC2=C(C(=O)CN(Cc3ccccc3)C2)C1c1cccc(C)c1C (centres unmarked) [Example 20, 4-(2,3-dimethylphenyl)-1,4,5,6,7,8-hexahydro-2-methyl-5-oxo-7-(phenylmethyl)-1,7-naphthyridine-3-carboxylic acid methyl ester]	80.4%	-24 mmHg	-39 mmHg	33.3%
COC(=O)C1=C(C)NC2=C(C(=O)CNC2)C1c1cccc(C)c1C (centres unmarked) [Example 21, 4-(2,3-dimethylphenyl)-1,4,5,6,7,8-hexahydro-2-methyl-5-oxo-1,7-naphthyridine-3carboxylic acid methyl ester]	76.7%	-42 mmHg	-45 mmHg	–
CC1=C(C(=O)OCCN(C)Cc2ccccc2)C(c2ccccc2C(F)(F)F)C2=C(CN(Cc3ccccc3)CC2=O)N1 (centres unmarked) [Example 22, 1,4,5,6,7,8-Hexahydro-2-methyl-5-oxo-7-phenylmethyl-4-[2-(trifluoromethyl)phenyl]-1,7-naphthyridine-3-carboxylic acid, 2-(N-benzyl-N-methylamino)ethylester]	–	-74 mmHg	-68 mmHg	55.6%
